Holding throughout (type): functional, cell-based
Experiment [1] concerns CH1. Nature of the experiment: The compound was tested for cytotoxic potency against CH1 human tumor cell lines.
In experiment [2] the test system is A2780. The experiment can be described thus: The compound was tested for cytotoxic potency against A2780R human tumor cell lines.
Experiment [3] concerns A2780. The experiment can be described thus: The compound was tested for cytotoxic potency against A2780 human tumor cell lines.
In experiment [4] the test system is SK-OV-3. The experiment can be described thus: The compound was tested for cytotoxic potency against SKOV-3 human tumor cell lines.
The subject of experiment [5] is A2780. Nature of the experiment: The compound was tested for cytotoxic potency against A2780 human tumor cell lines.

In general, IC50 refers to the concentration at which inhibition is half-maximal. Low readings indicate higher potency, high ones lower potency. Take `N=C(NCC1CC1)c1ccc(-c2ccc(-c3ccc(C(=N)NCC4CC4)cc3)o2)cc1`: the IC50 was 15 µM in experiment [1] (Homo sapiens, CH1); 13 µM in experiment [2] (Homo sapiens, A2780); 36 µM in experiment [3] (Homo sapiens, A2780); 56 µM in experiment [4].

Turning to `N=C(NC1CCCCC1)c1ccc(-c2ccc(-c3ccc(C(=N)NC4CCCCC4)cc3)o2)cc1`, the IC50 in experiment [1] (Homo sapiens, CH1) was 2.1 µM; in experiment [2] (Homo sapiens, A2780) it was 2.5 µM; in experiment [3] (Homo sapiens, A2780) it was 4.8 µM; in experiment [4] it was 5.2 µM.

`CC(C)CNC(=N)c1ccc(-c2ccc(-c3ccc(C(=N)NCC(C)C)cc3)o2)cc1`: the IC50 is 9 µM in experiment [1] (Homo sapiens, CH1); 12 µM in experiment [2] (Homo sapiens, A2780); 22.5 µM in experiment [3] (Homo sapiens, A2780); 52 µM in experiment [4].

Consider `CC(C)NC(=N)c1ccc(-c2ccc(-c3ccc(C(=N)NC(C)C)cc3)o2)cc1`, for which the IC50 in experiment [1] (Homo sapiens, CH1) is 44.5 µM; in experiment [2] (Homo sapiens, A2780), 6.4 µM; in experiment [3] (Homo sapiens, A2780), 38 µM; in experiment [4] it was 20.5 µM.

Take `N=C(NC1CCCC1)c1ccc(-c2ccc(-c3ccc(C(=N)NC4CCCC4)cc3)o2)cc1`: the IC50 in experiment [1] (Homo sapiens, CH1) is 3.6 µM; in experiment [2] (Homo sapiens, A2780), 3.8 µM; in experiment [3] (Homo sapiens, A2780), 12 µM; in experiment [4], 17 µM.

For `CCC(CC)NC(=N)c1ccc(-c2ccc(-c3ccc(C(=N)NC(CC)CC)cc3)o2)cc1`, the IC50 amounted to 16 µM in experiment [1] (Homo sapiens, CH1); 7.1 µM in experiment [2] (Homo sapiens, A2780); 32.5 µM in experiment [3] (Homo sapiens, A2780); 31 µM in experiment [4].

Take `N=C(NC1CCC1)c1ccc(-c2ccc(-c3ccc(C(=N)NC4CCC4)cc3)o2)cc1`: the IC50 in experiment [1] (Homo sapiens, CH1) came to 4.2 µM; in experiment [2] (Homo sapiens, A2780), 3.3 µM; in experiment [3] (Homo sapiens, A2780), 11 µM; in experiment [4] it was 25 µM.

For the molecule `N=C(NC1CC1)c1ccc(-c2ccc(-c3ccc(C(=N)NC4CC4)cc3)o2)cc1`, the half-maximal inhibitory concentration (IC50) in experiment [1] (Homo sapiens, CH1) came out at 18 µM; in experiment [2] (Homo sapiens, A2780), 15.5 µM; in experiment [3] (Homo sapiens, A2780), 37 µM; in experiment [4], 48 µM.

Turning to `N=C(N)c1ccc(-c2ccc(-c3ccc(C(=N)N)cc3)o2)cc1` [FURAMIDINE], the IC50 in experiment [1] (Homo sapiens, CH1) was 46.5 µM; in experiment [2] (Homo sapiens, A2780) it was 15.5 µM; in experiment [5], 46 µM; in experiment [4], 42.5 µM.

For CISPLATIN, the concentration for half-maximal inhibition (IC50) turned out to be 0.1 µM in experiment [1] (ch1), 3.3 µM in experiment [2] (a2780) and 0.3 µM in experiment [3] (a2780).

(Values after ChEMBL document CHEMBL1130308, “Cytotoxicity of bis(phenylamidinium)furan alkyl derivatives in human tumour cell lines: Relation to DNA minor groove binding” (Bioorg Med Chem Lett, 1997).)
